We go through three compounds from patent US8618074B2, “GPCR enhanced neuroprotection to treat brain injury” (Board of Regents of the University of Texas System, priority 2007, dated 2013).

SMILES strings stand for the structures.

The test system of assay [1] is astrocytes. In words: MCB (reduced GSH) fluorescence of cortical astrocytes after RB-induced clot/ischemia. The class given is in vivo, mouse. As to conditions: 340 minutes after the initial clot; tail vein injection with RB. On the procedure:
In another series of experiments, a transgenic mouse expressing green fluorescent protein (GFP) in astrocytes was prepared for imaging. In this mouse, the cortical cells were labeled with monochlorobimane (MCB), a fluorescent indicator of reduced GSH. After obtaining an image of astrocytes (GFP) and MCB fluorescence, the mouse was tail vein injected with Rose Bengal (RB), FITC-dextran and the P2Y-R agonist 2-MeSADP. A clot was induced with 543 nm irradiation in a region of the brain. Breakdown of the blood brain barrier in the region near this clot permitted secretion of 2-MeSADP in the nearby astrocytes. MCB fluorescence was maintained for over an hour in all of the cells in the field of view. […] The persistence of GSH in this area indicates an enhanced region of protection against oxidative stress caused by ischemia. Lineplots of MCB fluorescence of the astrocytes is depicted in FIG. 7. Cells a1-a3 are within the protected zone and cells a4-a6 are outside this area.

Assay [2] concerns astrocytes. Kind of assay: Intracellular ATP determination (luciferin-luciferase). The class given is cell-based, mouse. How it is done:
Intracellular ATP was measured using a luciferin-luciferase kit (Invitrogen, #22066). Plated astrocytes were trypsinized and washed 3× with PBS buffer (GIBCO #14190). An aliquot of cells was set aside to measure the cell density with a hemocytometer. The cells were then suspended in a lysate buffer (4 mM EDTA and 100 mM Tris, pH 7.75) and immediately heated to 100° C. for 5 minutes to minimize enzymatic changes in ATP levels. The supernatant was collected after a 10,000 g centrifugation for 1 minute and used with the luciferin/luciferase kit according to the manufacturer's instructions. Luminescence was measured with a Synergy™ HT Multi-Detection Microplate Reader (BioTek). ATP levels were normalized by cell density.
Our next approach to investigate the role of mitochondrial metabolism was to directly measure ATP levels in cultures astrocytes using a luciferin-luciferase assay (Invitrogen). Astrocytes were cultured as described above, trypsinized and washed with buffer. The cells were then suspended in a lysate buffer and immediately heated to 100° C. (5 min) to minimize enzymatic changes in ATP levels. After centrifugation, the ATP dependent luminescence of supernatant was measured with a microplate reader (Biotek). FIG. 5C depicts histograms of the direct measurement of intracellular ATP levels relative to untreated cells (control), P2Y-R stimulated (MeADP), then the same measurements in the presence of oligomycin (oligo) or ruthenium 360 (Ru360). We estimated that the resting intracellular ATP concentration in cultured astrocytes was 0.31±0.14 μM ATP/10^4 cells (n=3). […] Finally, we tested whether ruthenium 360 (Ru360; Calbiochem), a polycation that inhibits the electrogenic mitochondrial Ca^2+ uniporter, affected mitochondrial ATP production.

For assay [3], the system named is astrocytes. In words: Time until mitochondrial membrane potential (ΔΨ, TMRE) collapse during t-BuOOH oxidative stress. The class given is cell-based, mouse. The following applies: for time until ΔΨ collapse: oligomycin 1 μg/ml 30 min pretreatment, t-buOOH 100 μM; for mean time until ΔΨ collapse: oligomycin pretreatment + extracellular ATP 10 minutes, then oxidative stress. How it is done:
Primary cultures of astrocytes were prepared as previously published (Lin et al., 2005). C57BL/6 male mice were purchased from the National Institute of Aging and maintained in standard accredited housing conditions at the University of Texas Health Science Center Animal Facility. Animal protocols were approved by our Institutional Animal Care Use Committee. Astrocytes were cultured in DMEM F-12 media (Invitrogen, # 11039-021) supplemented with 2 mM glutamine, nonessential amino acids, 10% fetal calf serum, 100 U/ml penicillin/streptomycin (Cambrex BioScience Walkersville, #17-602E) and 1% fungizone (Invitrogen, #15290-018) at 37° C. in an atmosphere containing 5% CO2. The culture medium was changed every 3-5 days. Confluent cells were gently removed by a trypsin EDTA solution and re-plated on 35 mm glass bottom chambers (Bioptechs #04200415C) prior to imaging experiments 3-4 days later. Cells were maintained in plastic culture flasks until the final re-seeding of cells onto a glass bottom chamber and were passed up to 3 times for astrocyte only experiments. For co-culture experiments with neurons, primary astrocytes were plated directly onto corning transwell-clear permeable supports, which physically separates the two cell-types by ˜1 mm (# 07-200-170, Fisher scientific). Astrocytes were cultured in transwells until they were ˜70% confluent. Mouse cortical neurons (Cambrex Bio Science Walkersville Inc., # M-CX-300) were then cultured onto 6 well mat-tek glass bottom plates and maintained in Neurobasal Medium (Invitrogen, # 21103-049), 2 mM L-Glutamine (Cambrex BioScience Walkersville, #17-605E), 100 U/ml penicillin/streptomycin (Cambrex BioScience Walkersville, #17-602E) and B-27 with (Invitrogen, #17504-044) and without antioxidants (Invitrogen, #10889-038), which controls glia contamination to less than 0.5%. The transwell supports with cultured astrocytes were placed in the neuron seeded glass bottom chambers for four days before imaging and both cell types were then maintained in neuronal media. For neuron only experiments, the astrocytes on the transwell supports were removed prior to treatments and imaging.
Mitochondrial membrane potentials (ΔΨs) was measured as previously described using the potential sensitive dye tetra-methyl rhodamine ethyl ester (TMRE, Molecular Probes, #T-669) (Lin and Lechleiter, 2002). Images were acquired with a 60× oil 1.4 NA objective on a Nikon PCM2000 confocal microscope custom adapted for two-photon imaging. A Ti-sapphire Coherent Mira 900 Laser pumped with a 5W Verdi laser (Coherent Inc., Santa Clara, Calif.) was used to excite TMRE at 800 nm A neutral-density filter wheel was used to attenuate the laser intensity so that no detectable photobleaching of TMRE was observed.
To investigate this, primary cultures of astrocytes were prepared from the brains of young (4-6 months) and old (26-28 months) mice and re-plated on glass coverslips prior to each imaging experiment as previously described. Seeded glass coverslips were then sealed in an open chamber (Bioptechs Delta T) and perfused at 37° C. with the potential sensitive dye tetramethyl rhodamine ethyl ester (TMRE, 200 nM, Molecular Probes/Invitrogen) to label astrocyte mitochondria. Mitochondrial membrane potentials (ΔΨs) were measured every 5 minutes using two-photon microscopy. Each image is a maximum intensity projection of a z-stack of six optical sections (1-μm steps). Scale bar is 10 μm. Plated cells were continuously perfused at 37° C. with culture medium containing TMRE (200 nM) and imaged with 2-photon microscopy (800 nm). Oxidative stress was applied to the cells in the perfusate with t-BuOOH (100 μM). Cell viability was then monitored by the collapse of ΔΨ (TMRE fluorescence) to 10% of its initial value. The time course of ΔΨ collapse is plotted for 3 astrocytes (A1, A2, A3) in each culture (FIGS. 1B and 2B). Fluorescent units are scaled to 100% at 0 hours. […]

Consider `CSc1nc(N)c2ncn([C@@H]3O[C@H](COP(=O)(O)OP(=O)(O)O)[C@@H](O)[C@H]3O)c2n1` [2-MeSADP], for which, in the assay on astrocytes [1], the “MCB fluorescence (GSH) of astrocytes near the initial clot zone” value was “essentially maintained”. Also, the “intracellular ATP levels” value in the assay on astrocytes [2] (2-MeSADP 2 μM for 10 minutes) is listed as 0.39±0.16 μM ATP/10^4 cells.
As for `Nc1ncnc2c1ncn2[C@@H]1O[C@H](COP(=O)(O)OP(=O)(O)OP(=O)(O)O)[C@@H](O)[C@H]1O` [ATP], the “average time until ΔΨ collapse” value with astrocytes [3] (old astrocytes, ATP 10 μM 10 min prior to t-BuOOH 100 μM) worked out at 6.65 ± 0.24 h. In the assay on astrocytes [3] (young astrocytes, ATP 10 μM 10 min prior to t-BuOOH 100 μM), the “average time for ΔΨ to collapse” value came to 7.35 ± 0.23 h.
For the compound `CC[C@H]1/C=C/C=C/C[C@@H](C)[C@H](O)[C@@](C)(O)C(=O)[C@@H](C)[C@H](O)[C@@H](C)C(=O)[C@@H](C)[C@H](O)[C@@H](C)/C=C/C(=O)O[C@@H]2[C@H](C)[C@H](CC1)O[C@]1(CC[C@H](C)[C@H](C[C@@H](C)O)O1)[C@H]2C` [oligomycin], in the assay with astrocytes [3] (old astrocytes), the “time until ΔΨ collapse” value amounted to 4.16 ± 0.14 h and the “mean time until ΔΨ collapse” value came to 3.21±0.08. In the assay on astrocytes [3] (young astrocytes), the “time until ΔΨ collapse” value is 5.15 ± 0.08 h and the “mean time until ΔΨ collapse” value was found to be 4.69±0.23. Besides, in the assay with astrocytes [2] (oligomycin 0.01 μM 30 min pretreatment + 2-MeSADP), the “effect on P2Y1-R (2-MeSADP) mediated increases in ATP” value was “completely inhibited”. In the assay on astrocytes [2] (oligomycin 0.01 μM, 30 min), the “resting levels of ATP, % of control” value was 82.6%±3.2 % of control.
